Experimental findings from patent US20170260226A1, “3-NITROGEN OR SULPHUR SUBSTITUTED OESTRA-1,3,5(10),16-TETRAENE AKR1C3 INHIBITORS” (BAYER PHARMA AKTIENGESELLSCHAFT, priority 2014, published 2017) are described below.

Assay [1] has as its target T1, AKR1C3 (Homo sapiens, UniProt P42330).
T1 sequence (P42330 1-323): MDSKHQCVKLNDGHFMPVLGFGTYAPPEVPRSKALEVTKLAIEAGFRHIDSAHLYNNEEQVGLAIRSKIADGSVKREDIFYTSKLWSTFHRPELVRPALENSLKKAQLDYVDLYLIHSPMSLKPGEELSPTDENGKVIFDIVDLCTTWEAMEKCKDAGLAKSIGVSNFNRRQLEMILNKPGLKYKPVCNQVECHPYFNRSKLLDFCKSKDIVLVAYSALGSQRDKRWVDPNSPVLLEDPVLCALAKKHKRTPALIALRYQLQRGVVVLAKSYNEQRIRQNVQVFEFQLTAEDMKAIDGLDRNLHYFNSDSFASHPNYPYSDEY
Put plainly: AKR1C3 inhibition in a cell-based system (HEK293 cells transfected with AKR1C3 expression plasmid, coumberon substrate). Further details: expressed in transfected cells; host or cells: HEK293 cells (ATCC). The conditions noted are these: mean values; HEK293 cells transfected with AKR1C3, coumberon 6×10^−6M, 3 h; read-out: Cellular AKR1C3 inhibition IC50. How it is done:
The inhibition of AKR1C3 by the substances described in this invention was measured in a cell-based assay using coumberon as the substrate for AKR1C3 (Halim, M., Yee, D., J., and Sames, D., J. (2008). Am Chem Soc, 130, 14123-14128 and Yee, D., J., Balsanek, V., Bauman, D., R., Penning, T., M., and Sames, D. (2006), Proc Natl Acad Sci USA 103, 13304-13309) (cf. Example 48).
The cell system used was HEK293 cells (ATCC, USA) (DMEM/F12, 10% FCS, 2 mM L-Glutamine, PSG). The cells were transfected with an AKR1C3 expression plasmid (pCMV6-AC-AKR1C3, GenBank Accession No. NM 003739.4), harvested after 24 hours and subsequently frozen. For assays, the frozen cells were thawed in assay medium (DMEM/F12 w/o phenolred, 0.005% Tween, 10% FCS, 2 mM L-Glutamine, PSG). Cells were seeded at 2500 cells/well into 384-well low volume or 1536-well plates (Greiner Bio-One, Frickenhausen, Germany) that contained 40-50 nl of a 100 fold concentrated compound solution in DMSO. After incubation at room temperature for 15 minutes, coumberon in PBS was added to a final concentration of 6×10^−6M. Following a 3 h incubation at room temperature, the reaction was stopped by lysing the cells with 0.4% Triton X-100. Coumberol fluorescence intensity was measured at 520 nm (excitation 380 nm) with a suitable measuring instrument (Pherastar, BMG). […] The data were normalized (transfected cells+coumberon=0% inhibition; no cells+coumberone=100% inhibition). Substances were usually tested at 11 different concentrations on the same microtiter plate in a range between 96.8 pM to 20 μM (20 μM, 5.9 μM, 1.7 μM, 0.5 μM, 0.15 μM, 44 nM, 12.9 nM, 3.8 nM, 1.1 nM, 0.3 nM and 96.8 pM). The dilutions were carried out on a 100 fold concentrated solution by serial dilution in duplicates. From the obtained data IC50 values were calculated by a 4-parameter fit.

Assay [2] deals with T1, AKR1C3. Put plainly: AKR1C3 enzyme inhibition assay (coumberone to coumberol fluorescence). The class given is biochemical. The arrangement: GST (cleaved yes); made in house; host or cells: E. coli. The conditions noted are these: mean values; 10 μM NADPH, 0.3 μM coumberone, 3 h at room temperature. The protocol:
The AKR1C3-inhibitory action of the substances of this invention was measured in the AKR1C3 assay described in the paragraphs which follow.
Essentially, the enzyme activity is measured by quantifying the coumberol formed from coumberone (Halim, M., Yee, D., J., and Sames, D., J. A., M. (2008). Chem Soc 130, 14123-14128 and Yee, D., J., Balsanek, V., Bauman, D., R., Penning, T., M., and Sames, D. (2006). Proc Natl Acad Sci USA, 103, 13304-13309). In this assay, the increase in the highly fluorescent coumberol can be determined by NADPH (nicotinamide adenine dinucleotide phosphate)-dependent reduction of the nonfluorescent coumberone by AKR1C3.
The enzyme used was recombinant human AKR1C3 (aldo-keto reductase family 1 member C3) (GenBank Accession No. NM_003739). This was expressed as the GST (glutathione S-transferase) fusion protein in E. coli and purified by means of glutathione-Sepharose affinity chromatography. The GST was removed by thrombin digestion with subsequent size exclusion chromatography (Dufort, I., Rheault, P., Huang, X., F., Soucy, P., and Luu-The, V. (1999). Endocrinology,140, 568-574).
For the assay, 40-50 nl of a 100-fold concentrated solution of the test substance in DMSO were pipetted into a black low-volume 384-well microtitre plate (Greiner Bio-One, Frickenhausen, Germany), 2-2.5 μl of a solution of AKR1C3 in assay buffer [50 mM potassium phosphate buffer pH 7, 1 mM DTT, 0.0022% (w/v) Pluronic F-127, 0.01% BSA (w/v) and protease inhibitor cocktail (complete, EDTA-free Protease Inhibitor Cocktail from Roche)] were added and the mixture was incubated for 20 min, in order to enable preliminary binding of the substances to the enzyme prior to the enzyme reaction. Then the enzyme reaction was started by adding 2-2.5 μl of a solution of NADPH and coumberone in assay buffer (final assay concentration was 10 μM NADPH and 0.3 μM coumberone) and the resulting mixture was incubated at room temperature for 3 h. Typical concentrations were depending on the linear range of the enzyme reaction during the reaction time about 1 nM. The reaction was stopped by adding 2 μl of a stop solution consisting of the AKR1C3 inhibitor EM-1404 to a final concentration of 1 μM. Subsequently, the fluorescence of coumberol was measured at 520 nm (excitation at 380 nm) with a suitable measuring instrument (Pherastar, BMG). […] The data were normalized (enzyme+coumberon substrate in assay buffer=0% inhibition; coumberone substrate only in assay buffer=100% inhibition). Substances were usually tested at 11 different concentrations on the same microtiter plate in a range between 96.8 pM to 20 μM (20 μM, 5.9 μM, 1.7 μM, 0.5 μM, 0.15 μM, 44 nM, 12.9 nM, 3.8 nM, 1.1 nM, 0.3 nM and 96.8 pM). The dilutions were carried out on a 100 fold concentrated solution by serial dilution in duplicates. From the obtained data IC50 values were calculated by a 4-parameter fit.

Turning to `C[C@]12CC[C@@H]3c4ccc(NC(=O)CCC(=O)O)cc4CC[C@H]3[C@@H]1CC=C2c1cncc(F)c1` [Example 23, 4-{[17-(5-fluoropyridin-3-yl)estra-1(10),2,4,16-tetraen-3-yl]amino}-4-oxobutanoic acid], the values for the 50% inhibitory concentration (IC50) on AKR1C3 [1] and on AKR1C3 [2] were 780 nM and 3.8 nM, respectively.
On to `C[C@]12CC[C@@H]3c4ccc(NC(=O)CCC(=O)O)cc4CC[C@H]3[C@@H]1CC=C2c1cncnc1` [Example 25, 4-oxo-4-{[17-(pyrimidin-5-yl)estra-1(10),2,4,16-tetraen-3-yl]amino}butanoic acid], for which the IC50 (as a rule, the concentration that inhibits the measured activity by half) on AKR1C3 [1] worked out at 8340 nM; against AKR1C3 [2] it was 313 nM.
Take `C[C@]12CC[C@@H]3c4ccc(NC(=O)CCC(N)=O)cc4CC[C@H]3[C@@H]1CC=C2c1cncc(F)c1` [Example 26, N-[17-(5-fluoropyridin-3-yl)estra-1(10),2,4,16-tetraen-3-yl]butanediamide]: the IC50 turned out to be 150 nM on AKR1C3 [1] and 8.6 nM on AKR1C3 [2].
Taken in the same sequence, the figures for `C[C@]12CC[C@@H]3c4ccc(NC(=O)CCCO)cc4CC[C@H]3[C@@H]1CC=C2c1cncc(F)c1` [Example 27, N-[17-(5-fluoropyridin-3-yl)estra-1(10),2,4,16-tetraen-3-yl]-4-hydroxybutanamide] were 110 nM and 5 nM.
Taken in the same sequence, the figures for `CC(=O)NS(=O)(=O)CCC(=O)Nc1ccc2c(c1)CC[C@@H]1[C@@H]2CC[C@]2(C)C(c3cncc(F)c3)=CC[C@@H]12` [Example 29, 3-(acetylsulfamoyl)-N-[17-(5-fluoropyridin-3-yl)estra-1(10),2,4,16-tetraen-3-yl]propanamide] were 5000 nM and 3.2 nM.
Taken in the same sequence, the figures for `CC(=O)NS(=O)(=O)CCC(=O)N(C)c1ccc2c(c1)CC[C@@H]1[C@@H]2CC[C@]2(C)C(c3cncc(F)c3)=CC[C@@H]12` [Example 31, 3-(acetylsulfamoyl)-N-[17-(5-fluoropyridin-3-yl)estra-1(10),2,4,16-tetraen-3-yl]-N-methylpropanamide] were 1540 nM and 4.1 nM.
For `C[C@]12CC[C@@H]3c4ccc(NC(=O)CCc5nn[nH]n5)cc4CC[C@H]3[C@@H]1CC=C2c1cncc(F)c1` [Example 32, N-[17-(5-fluoropyridin-3-yl)estra-1(10),2,4,16-tetraen-3-yl]-3-(2H-tetrazol-5-yl)propanamide], the IC50 at AKR1C3 [1] came to 2170 nM; at AKR1C3 [2] it was 11.8 nM.
With `CN(C(=O)CCc1nn[nH]n1)c1ccc2c(c1)CC[C@@H]1[C@@H]2CC[C@]2(C)C(c3cncc(F)c3)=CC[C@@H]12` [Example 33, N-[17-(5-fluoropyridin-3-yl)estra-1(10),2,4,16-tetraen-3-yl]-N-methyl-3-(2H-tetrazol-5-yl)propanamide], the IC50 stood at 260 nM on AKR1C3 [1] and 2.5 nM at AKR1C3 [2].
In the case of `CN(C(=O)CCC(=O)O)c1ccc2c(c1)CC[C@@H]1[C@@H]2CC[C@]2(C)C(c3cncc(F)c3)=CC[C@@H]12` [Example 35, 4-{[17-(5-fluoropyridin-3-yl)estra-1(10),2,4,16-tetraen-3-yl](methyl)amino}-4-oxobutanoic acid], the IC50 on AKR1C3 [1] is 210 nM; on AKR1C3 [2], 3.2 nM.
Consider `CN(c1ccc2c(c1)CC[C@@H]1[C@@H]2CC[C@]2(C)C(c3cncc(F)c3)=CC[C@@H]12)S(=O)(=O)CCC(=O)O` [Example 38, 3-{[17-(5-fluoropyridin-3-yl)estra-1(10),2,4,16-tetraen-3-yl](methyl)sulfamoyl}propanoic acid], for which the 50% inhibitory concentration (IC50) on AKR1C3 [1] is 860 nM; on AKR1C3 [2] it was 4.9 nM.
For `C[C@]12CC[C@@H]3c4ccc(NS(=O)(=O)CCC(=O)O)cc4CC[C@H]3[C@@H]1CC=C2c1cncc(F)c1` [Example 39, 3-{[17-(5-fluoropyridin-3-yl)estra-1(10),2,4,16-tetraen-3-yl]sulfamoyl}propanoic acid], in that order: 5100 nM and 3 nM.
For the compound `CC(=O)Nc1ccc2c(c1)CC[C@@H]1[C@@H]2CC[C@]2(C)C(c3cncc(F)c3)=CC[C@@H]12` [Example 40, N-[17-(5-fluoropyridin-3-yl)estra-1(10),2,4,16-tetraen-3-yl]acetamide], the IC50 at AKR1C3 [1] stood at 100 nM; against AKR1C3 [2], 5.3 nM.
Regarding `C[C@]12CC[C@@H]3c4ccc(NC(=O)NCCC(=O)O)cc4CC[C@H]3[C@@H]1CC=C2c1cncc(F)c1` [Example 42, N-{[17-(5-fluoropyridin-3-yl)estra-1(10),2,4,16-tetraen-3-yl]carbamoyl}-beta-alanine], the half-inhibitory concentration (IC50) at AKR1C3 [1] amounted to 8090 nM; on AKR1C3 [2], 8.3 nM.
For `CN(CCCC(=O)O)c1ccc2c(c1)CC[C@@H]1[C@@H]2CC[C@]2(C)C(c3cncc(F)c3)=CC[C@@H]12` [Example 44, 4-{[17-(5-fluoropyridin-3-yl)estra-1(10),2,4,16-tetraen-3-yl](methyl)amino}butanoic acid], the 50% inhibitory concentration (IC50) was found to be 1120 nM on AKR1C3 [1] and 18.5 nM against AKR1C3 [2].
Consider `Cc1cc(C2=CC[C@H]3[C@@H]4CCc5cc(NC(=O)CCC(=O)O)ccc5[C@H]4CC[C@]23C)cnn1` [Example 45, 4-{[17-(6-methylpyridazin-4-yl)estra-1(10),2,4,16-tetraen-3-yl]amino}-4-oxobutanoic acid], for which the IC50 on AKR1C3 [1] came out at 980 nM; on AKR1C3 [2], 1.8 nM.
Turning to `C[C@]12CC[C@@H]3c4ccc(S(C)(=N)=O)cc4CC[C@H]3[C@@H]1CC=C2c1cncc(F)c1` (some centres unmarked) [Example 46, 17-(5-fluoropyridin-3-yl)-3-(S-methylsulfonimidoyl)estra-1(10),2,4,16-tetraene], the values for the IC50 on AKR1C3 [1] and at AKR1C3 [2] were 30 nM and 2.2 nM, respectively.
